Source: paper PMC7663272, “Discovery of Tricyclic Pyranochromenone as Novel Bruton’s Tyrosine Kinase Inhibitors with In Vivo Antirheumatic Activity” (International Journal of Molecular Sciences, 2020)
“Also recorded” adds a separate entry of the source.

Columns and labels:
[1] = test system: BTK; design: method as in not given; details: reported tricyclic BTK inhibitors, printed in Figure 2b; ref not given; cited from earlier work
[2] = target: T1, BTK-wt (Homo sapiens, UniProt Q06187); assay: HotSpot kinase enzymatic assay, BTK-wt; assay type: biochemical; details: for inhibition at 10 µM: vs negative control (DMSO), mean of two separate experiments, NA = not active at 10 µM, read-out: % Inhibition (10 µM) BTK-wt; for IC50: HotSpot assay, 10 μM ATP, GraphPad Prism
T1 construct: purchased Reaction Biology Corporation
Procedure: (§1) Kinase enzymatic assays for BTK, BMX, TXK, TEC, ITK, EGFR, ERBB2, ERBB4, and JAK3 were performed at Reaction Biology Corporation (www.reactionbiology.com, Malvern, PA, USA) using the HotSpot assay platform. Briefly, specific kinase/substrate pairs and the required cofactors were prepared in a reaction buffer comprising 20 mM HEPES (pH 7.5), 10 mM MgCl2, 1 mM EGTA, 0.02% Brij35, 0.02 mg/mL BSA, 0.1 mM Na3VO4, 2 mM DTT, and 1% DMSO. The compounds were added to the reaction mixture and allowed to incubate. Approximately 20 min later, a mixture of ATP (Sigma-Aldrich, St. Louis, MO, USA) and ^33P ATP (PerkinElmer, Waltham, MA, USA) was added to the reaction mixture at a final concentration of 10 μM. The reactions were performed at room temperature for 120 min; subsequently, the reactions were spotted onto P81 ion exchange filter papers (Whatman Inc., Maidstone, UK). […] GraphPad Prism software was used to obtain the IC50 values and perform curve fitting.

[3] = target: T2, BTK-C481S (Homo sapiens, UniProt Q06187, C481S); assay: HotSpot kinase enzymatic assay, mutant BTK; assay type: biochemical; details: vs negative control (DMSO), mean of two separate experiments
T2 construct: purchased Reaction Biology Corporation
Source text: To confirm the role of the electrophilic warhead groups, the acryloyl group of compound 8 was replaced with methylacryloyl (11) and propionyl (12) groups, which are less electrophilic or lack an electrophilic feature. […] The significant difference in the inhibitory activity of compounds 8 and 12 could explain the critical role of the acryloyl moiety in potentiating the BTK inhibitory activity of compound 8. […] It was also confirmed by comparison of the inhibitory activity of the representative compounds (8–10) with electrophilic warheads against wild-type BTK (BTK-wt) and mutant BTK (BTK-C481S).
as §1, with “UK). Any unbound phosphate was removed by thoroughly washing the filter papers with 0.75% phosphoric acid.” for “UK).”

[4] = test system: collagen-induced arthritis (CIA); assay: Murine model of collagen-induced arthritis (CIA); assay type: in vivo; details: mice, 0.3 mg/kg, daily oral; t-test
Procedure: The in vivo efficacy of compound 8 was evaluated in a murine inflammatory model of collagen-induced arthritis (CIA). The study included four groups: a vehicle-treated control group and three treatment groups. The treatment groups comprised a dexamethasone-treated group, in which dexamethasone served as the positive control, and two treatment groups, in which animals were treated with compound 8 at doses of 10 and 50 mg/kg. Compound 8 was administered once daily for 15 days by oral gavage, and the in vivo efficacy was evaluated by measuring the clinical score and foot volume. […] There were no significant changes in the body weights of animals in all the treatment groups (data not shown) during treatment.
The animal study was approved by the Institutional Animal Care and Use Committee (IACUC) of the Korea Research Institute of Bioscience and Biotechnology on March 15, 2017, under approval number KRIBB-AEC-17090. Male DBA1/JNCrli mice (7 weeks old) were purchased from Japan CRL, Inc. The mice were housed in specific pathogen-free (SPF) conditions and were allowed ad libitum access to food and water. After 7 days of acclimatization, the mice were immunized with 0.05 mL of a type II collagen emulsion (Hooke Kit^TM Chicken Collagen, Cat. No. EK-0210 from Hooke) and Freund’s complete adjuvant by subcutaneous injection at 1.5 cm distal from the base of the tail. After 21 days, the immunized mice were administered a booster injection with 0.05 mL of a type II collagen emulsion (Hooke Kit^TM Chicken Collagen, Cat. No. EK-0211 from Hooke) and Freund’s incomplete adjuvant. The emulsions were prepared according to the manufacturer’s instructions. On day 21, the mice with CIA were randomized into four groups. The animals in the four groups were administered either 0.3 mg/kg dexamethasone (n = 5), 10 mg/kg compound 8 (n = 5), 50 mg/kg compound 8 (n = 5), or vehicle (n = 5), once a day, for […], orally. The vehicle, in which all test compounds were suspended, comprised DMAC (10%), Tween 80 (10%), and DW (80%). Clinical arthritis scores and body weights were assessed three times per week for 15 days. The paw volumes were measured using a LE7500 plethysmometer (Panlab, Barcelona, Spain) on days 0 and 42.

T1 sequence (Q06187 whole entry): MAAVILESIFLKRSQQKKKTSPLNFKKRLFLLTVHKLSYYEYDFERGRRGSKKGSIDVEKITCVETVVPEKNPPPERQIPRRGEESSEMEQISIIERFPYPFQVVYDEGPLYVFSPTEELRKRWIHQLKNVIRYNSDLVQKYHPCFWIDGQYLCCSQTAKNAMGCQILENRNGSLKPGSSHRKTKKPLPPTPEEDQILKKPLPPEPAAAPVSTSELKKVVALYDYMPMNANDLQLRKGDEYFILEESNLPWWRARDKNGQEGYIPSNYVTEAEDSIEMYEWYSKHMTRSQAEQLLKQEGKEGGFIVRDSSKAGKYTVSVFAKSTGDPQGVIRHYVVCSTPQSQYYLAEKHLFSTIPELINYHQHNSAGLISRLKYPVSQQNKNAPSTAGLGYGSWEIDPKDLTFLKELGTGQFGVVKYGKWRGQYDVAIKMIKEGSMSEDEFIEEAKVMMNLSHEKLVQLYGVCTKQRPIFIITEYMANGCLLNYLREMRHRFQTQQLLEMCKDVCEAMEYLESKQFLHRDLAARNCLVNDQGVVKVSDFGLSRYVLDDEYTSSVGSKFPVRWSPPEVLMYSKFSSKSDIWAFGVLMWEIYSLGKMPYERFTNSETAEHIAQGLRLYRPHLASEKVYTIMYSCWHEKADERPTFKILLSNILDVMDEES
T2 sequence (Q06187 whole entry C481S): as the sequence (Q06187 whole entry) above, with C481S counted along it

| BTK inhibitory activity (in words) [2] | inhibition at 10 µM [2] [%] | IC50 [2] [µM] | inhibition at 10 µM [3] [%] | SMILES | IC50 [1] [µM] | clinical scores vs control [4] |
| --- | --- | --- | --- | --- | --- | --- |
| – | – | – | – | Cc1c(-c2c(F)cc(C(N)=O)c3[nH]c4c(c23)CC[C@H](C(C)(C)O)C4)cccc1-n1c(=O)c2cccc(F)c2n(C)c1=O [BMS-986142] | 0.0005 | – |
| weak inhibitory activity | 32 | > 10 | – | CC(C)=CC(=O)O[C@H]1Cc2cc3ccc(=O)oc3cc2OC1(C)C [Compound 1, Decursin] | – | – |
| inactive | 7.7 | > 10 | – | CC1(C)Oc2cc3oc(=O)ccc3cc2C[C@@H]1O [Compound 2, S-(+)-Decursinol] | – | – |
| minimal inhibitory activity | 11.3 | > 10 | – | C/C=C/C(=O)O[C@H]1Cc2cc3ccc(=O)oc3cc2OC1(C)C [Compound 3, (7S)-(+)-But-2-enoic acid, 8,8-dimethyl-2-oxo-6,7-dihydro-2H,8H-pyrano[3,2-g]chromen-7-ylester] | – | – |
| minimal inhibitory activity | 20.3 | > 10 | – | CC1(C)Oc2cc3oc(=O)ccc3cc2C[C@@H]1OC(=O)/C=C/CBr [Compound 4] | – | – |
| no BTK inhibitory activity | – | > 10 | – | CC1(C)Oc2cc3oc(=O)ccc3cc2C[C@@H]1OC(=O)/C=C/c1ccccc1 [Compound 5, (7S)-(+)-trans-Cinnamic acid, 8,8-dimethyl-2-oxo-6,7-dihydro-2H,8H-pyrano[3,2-g]chromen-7-yl ester] | – | – |
| no BTK inhibitory activity | – | > 10 | – | CC1(C)Oc2cc3oc(=O)ccc3cc2C[C@@H]1OC(=O)/C=C/c1ccc(F)cc1 [Compound 6, (7S)-(+)-trans-4-Fluorocinnamic acid, 8,8-dimethyl-2-oxo-6,7-dihydro-2H,8H-pyrano[3,2-g]chromen-7-yl ester] | – | – |
| relatively low BTK inhibitory activity | 34.5 | 7 | – | CC#CC(=O)O[C@H]1Cc2cc3ccc(=O)oc3cc2OC1(C)C [Compound 7, (7S)-(+)-But-2-yonic acid, 8,8-dimethyl-2-oxo-6,7-dihydro-2H,8H-pyrano[3,2-g]chromen-7-ylester] | – | – |
| – | 95.8 | 0.9 | 15.8 | C=CS(=O)(=O)O[C@H]1Cc2cc3ccc(=O)oc3cc2OC1(C)C [Compound 9, (7S)-(+)-Ethenesulfonic acid, 8,8-dimethyl-2-oxo-6,7-dihydro-2H,8H-pyrano [3,2-g]chromen-7-yl ester] | – | – |
| – | 99.2 | 0.5 | 18.6 | CC1(C)Oc2cc3oc(=O)ccc3cc2C[C@@H]1OC(=O)CCl [Compound 10, (7S)-(+)-Chloroacetic acid, 8,8-dimethyl-2-oxo-6,7-dihydro-2H,8H-pyrano [3,2-g]chromen-7-ylester] | – | – |
| completely diminished | – | > 10 | – | C=C(C)C(=O)O[C@H]1Cc2cc3ccc(=O)oc3cc2OC1(C)C [Compound 11, (7S)-(+)-2-Methylacrylic acid, 8,8-dimethyl-2-oxo-6,7-dihydro-2H,8H-pyrano[3,2-g]chromen-7-yl ester] | – | – |
| – | – | – | – | C[C@@H]1C[C@H]2[C@@H]3CCC4=CC(=O)C=C[C@]4(C)[C@@]3(F)[C@@H](O)C[C@]2(C)[C@@]1(O)C(=O)CO [dexamethasone, reference compound] | – | differed significantly from those with the control |

| SMILES | BTK inhibitory activity (in words) [2] | inhibition at 10 µM [2] [%] | IC50 [2] [µM] | inhibition at 10 µM [3] [%] | IC50 [1] [µM] | clinical scores vs control [4] |
| --- | --- | --- | --- | --- | --- | --- |
| CCC(=O)O[C@H]1Cc2cc3ccc(=O)oc3cc2OC1(C)C [Compound 12, (7S)-(+)-Propionic acid, 8,8-dimethyl-2-oxo-6,7-dihydro-2H,8H-pyrano [3,2-g]chromen-7-ylester] | completely diminished; also recorded: BTK inhibitory activity was lost | – | > 10 | – | – | – |
